Results: patent US12503438B2, “Compounds for the treatment of kinase-dependent disorders” (Exelixis, Inc., priority 2019, dated 2025)

Tests used:
Mer = target: T1, Mer (Homo sapiens, UniProt Q12866); assay: Mer autophosphorylation ELISA in transient transfected 293A cells; assay type: cell-based; conditions: cellular activity; MERTK-transfected 293A cells, phospho-Mer ELISA
T1 construct: host or cells: 293A cells (Thermo Fisher #R70507)
T1 sequence (Q12866 21-999): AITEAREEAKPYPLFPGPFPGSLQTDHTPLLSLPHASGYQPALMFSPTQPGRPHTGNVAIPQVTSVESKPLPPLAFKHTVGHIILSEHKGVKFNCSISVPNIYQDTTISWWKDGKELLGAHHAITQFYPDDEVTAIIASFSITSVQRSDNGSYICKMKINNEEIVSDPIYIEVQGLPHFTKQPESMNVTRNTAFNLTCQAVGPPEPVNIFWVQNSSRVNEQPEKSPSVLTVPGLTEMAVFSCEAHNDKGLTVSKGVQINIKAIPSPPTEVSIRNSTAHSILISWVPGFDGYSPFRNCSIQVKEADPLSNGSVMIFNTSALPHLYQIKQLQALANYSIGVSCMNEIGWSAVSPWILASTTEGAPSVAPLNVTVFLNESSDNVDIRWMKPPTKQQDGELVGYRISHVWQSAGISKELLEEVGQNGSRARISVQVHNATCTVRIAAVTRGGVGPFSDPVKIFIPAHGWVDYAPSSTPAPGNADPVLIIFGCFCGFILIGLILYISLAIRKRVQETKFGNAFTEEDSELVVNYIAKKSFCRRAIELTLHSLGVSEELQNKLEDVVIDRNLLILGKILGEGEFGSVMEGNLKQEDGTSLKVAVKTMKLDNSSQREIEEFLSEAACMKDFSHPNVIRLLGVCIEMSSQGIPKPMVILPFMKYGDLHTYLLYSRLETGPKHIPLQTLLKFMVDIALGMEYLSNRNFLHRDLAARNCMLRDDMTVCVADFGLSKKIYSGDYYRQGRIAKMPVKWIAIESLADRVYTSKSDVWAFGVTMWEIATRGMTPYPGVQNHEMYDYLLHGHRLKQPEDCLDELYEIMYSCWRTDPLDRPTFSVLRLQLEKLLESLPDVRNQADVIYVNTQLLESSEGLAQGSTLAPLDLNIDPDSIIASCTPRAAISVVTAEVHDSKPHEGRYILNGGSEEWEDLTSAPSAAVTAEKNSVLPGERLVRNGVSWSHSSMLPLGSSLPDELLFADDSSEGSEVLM
Experimental: 293A cells (Thermo Fisher #R70507) were seeded at 1.5×10^6 cells/well onto 100 mm dish (Greiner #664169), in DMEM (Thermo Fisher #11995-040) containing 10% FBS (Thermo Fisher #26140-079), 1% MEM NEAA (Thermo Fisher #11140-050), 1% GlutaMax (Thermo Fisher #35050-061), and 1% Penicillin Streptomycin (Thermo Fisher #15140-122). 293A cells were incubated at 37° C., 5% CO2 for 24 h and then transfected with 6 μg MERTK DNA (Genecopoeia #EX-Z8208-M02) using TransIT LT1 transfection reagent (Mirus-Bio #MIR2305). After 24 h incubation, the transfected 293A cells were seeded at 1×10^5 cells/well onto 96-well plates (Corning #3904) in DMEM growth medium overnight. Test compounds were serially diluted to produce an 8-point dose curve in fresh serum-free medium to a final concentration of 0.3% DMSO (vehicle) and added to the cells and incubated for 1 h. Cells were then immediately lysed with 150 μL of cold 1× lysis buffer [20 mM Tris, 137 mM sodium chloride, 2 mM EDTA, 10% glycerol, 1% NP-40 alternative, 1 mM activated sodium orthovanadate, 1 mM PefaBloc SC (Sigma-Aldrich #11429868001), protease/phosphatase inhibitor tablet (Thermo Fisher #A32959)]. Lysates were clarified by centrifugation and 50 μL/well added into the human phospho-Mer DuoSet IC ELISA (R&D Systems #DYC2579-2). Assay was performed according to manufacturer's instructions and sample phospho-Mer concentrations were extrapolated using human phospho-Mer control (R&D Systems #841793) as a standard. Positive control wells (100% activity) contained DMSO-treated cell lysates. Negative control wells (0% activity) contained reference inhibitor-treated cell lysates. IC50 values were calculated by nonlinear regression analysis using a 4-parameter logistic curve fit in ActivityBase XE (IDBS).

Met = Met (Homo sapiens, UniProt P08581); assay: Met autophosphorylation ELISA in PC-3 cells; assay type: cell-based; set-up: endogenous in cells; host or cells: PC-3 prostate cancer cells (ATCC #CRL-1435); conditions: cellular activity, HGF-stimulated, phospho-Met ELISA, read-out: c-Met IC50
Sequence of Met (P08581 25-1390): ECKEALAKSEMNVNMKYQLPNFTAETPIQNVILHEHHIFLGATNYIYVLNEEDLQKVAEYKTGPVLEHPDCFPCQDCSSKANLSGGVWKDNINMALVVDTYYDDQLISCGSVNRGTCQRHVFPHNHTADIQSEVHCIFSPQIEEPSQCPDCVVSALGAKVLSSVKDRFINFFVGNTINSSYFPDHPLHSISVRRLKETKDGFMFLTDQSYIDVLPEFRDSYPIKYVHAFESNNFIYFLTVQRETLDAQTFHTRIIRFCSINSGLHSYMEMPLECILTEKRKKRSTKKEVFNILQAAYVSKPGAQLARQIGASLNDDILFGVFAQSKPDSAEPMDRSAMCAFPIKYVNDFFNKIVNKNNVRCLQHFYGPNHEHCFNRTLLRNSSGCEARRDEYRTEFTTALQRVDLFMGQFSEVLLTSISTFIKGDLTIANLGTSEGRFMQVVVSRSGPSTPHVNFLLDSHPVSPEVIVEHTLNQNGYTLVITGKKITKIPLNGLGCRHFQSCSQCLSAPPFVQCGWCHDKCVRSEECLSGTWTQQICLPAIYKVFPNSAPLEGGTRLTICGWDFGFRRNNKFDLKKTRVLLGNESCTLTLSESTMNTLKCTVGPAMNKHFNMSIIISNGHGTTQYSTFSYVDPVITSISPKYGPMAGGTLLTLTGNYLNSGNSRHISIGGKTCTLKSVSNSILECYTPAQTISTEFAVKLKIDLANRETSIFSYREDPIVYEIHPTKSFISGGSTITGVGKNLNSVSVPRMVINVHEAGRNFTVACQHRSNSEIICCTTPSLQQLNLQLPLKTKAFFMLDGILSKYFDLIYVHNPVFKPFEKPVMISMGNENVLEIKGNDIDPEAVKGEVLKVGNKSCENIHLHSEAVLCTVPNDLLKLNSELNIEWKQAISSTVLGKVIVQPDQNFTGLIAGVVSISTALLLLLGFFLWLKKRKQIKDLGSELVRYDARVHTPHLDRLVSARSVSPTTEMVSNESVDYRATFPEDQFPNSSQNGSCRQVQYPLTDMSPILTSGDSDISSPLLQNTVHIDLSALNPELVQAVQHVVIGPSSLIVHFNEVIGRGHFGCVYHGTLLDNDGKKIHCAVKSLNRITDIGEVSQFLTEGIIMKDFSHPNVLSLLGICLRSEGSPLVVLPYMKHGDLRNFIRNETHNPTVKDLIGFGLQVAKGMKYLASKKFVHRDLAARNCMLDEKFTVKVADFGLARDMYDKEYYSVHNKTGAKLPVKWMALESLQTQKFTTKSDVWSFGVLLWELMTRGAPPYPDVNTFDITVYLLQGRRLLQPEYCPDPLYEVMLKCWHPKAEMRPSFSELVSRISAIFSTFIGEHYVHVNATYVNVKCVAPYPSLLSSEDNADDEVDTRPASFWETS
How it was run: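 PC-3 cells serum-starved 3 h, treated 1 h with 8-point compound series (0.3% DMSO), then stimulated with 100 ng/mL human HGF for 10 min. Lysate phospho-Met (panTyr) measured by sandwich ELISA; IC50 from 4-parameter logistic fit against DMSO and reference-inhibitor controls.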

| Compound | IC50 (Mer) | IC50 (Met) |
| --- | --- | --- |
| O=C(Nc1ccc(F)cc1)C1(C(=O)Nc2ccc(Oc3ccnc4cc(-c5cncc(F)c5)ccc34)cc2)CC1 [Compound 45, 1-N′-(4-Fluorophenyl)-1-N-[4-[7-(5-fluoropyridin-3-yl)quinolin-4-yl]oxyphenyl]cyclopropane-1,1-dicarboxamide] | 0.01 to 0.1 µM | 0.1 to 0.3 µM |
| Cc1cncc(-c2ccc3c(Oc4ccc(NC(=O)C5(C(=O)Nc6ccc(F)cc6)CC5)cc4)ccnc3c2)c1 [Compound 46, 1-N′-(4-Fluorophenyl)-1-N-[4-[7-(5-methylpyridin-3-yl)quinolin-4-yl]oxyphenyl]cyclopropane-1,1-dicarboxamide] | 0.1 to 0.3 µM | 0.1 to 0.3 µM |
| COc1cncc(-c2ccc3c(Oc4ccc(NC(=O)C5(C(=O)Nc6ccc(F)cc6)CC5)cc4)ccnc3c2)c1 [Compound 47, 1-N′-(4-Fluorophenyl)-1-N-[4-[7-(5-methoxypyridin-3-yl)quinolin-4-yl]oxyphenyl]cyclopropane-1,1-dicarboxamide] | 0.01 to 0.1 µM | 0.1 to 0.3 µM |
| CC(C)Oc1ccc(-c2ccc3c(Oc4ccc(NC(=O)C5(C(=O)Nc6ccc(F)cc6)CC5)cc4)ccnc3c2)cn1 [Compound 50, 1-N′-(4-Fluorophenyl)-1-N-[4-[7-(6-propan-2-yloxypyridin-3-yl)quinolin-4-yl]oxyphenyl]cyclopropane-1,1-dicarboxamide] | 0.1 to 0.3 µM | 0.1 to 0.3 µM |
| O=C(Nc1ccc(F)cc1)C1(C(=O)Nc2ccc(Oc3ccnc4cc(-c5ccc(O)nc5)ccc34)cc2)CC1 [Compound 51, 1-N′-(4-Fluorophenyl)-1-N-[4-[7-(6-hydroxypyridin-3-yl)quinolin-4-yl]oxyphenyl]cyclopropane-1,1-dicarboxamide] | 0.01 to 0.1 µM | ≤ 0.01 µM |
| O=C(Nc1ccc(F)cc1)C1(C(=O)Nc2ccc(Oc3ccnc4cc(-c5cccnc5O)ccc34)cc2)CC1 [Compound 52, 1-N′-(4-Fluorophenyl)-1-N-[4-[7-(2-hydroxypyridin-3-yl)quinolin-4-yl]oxyphenyl]cyclopropane-1,1-dicarboxamide] | 0.1 to 0.3 µM | 0.01 to 0.1 µM |
| Cn1nccc1-c1ccc2c(Oc3ccc(NC(=O)C4(C(=O)Nc5ccc(F)cc5)CC4)cc3)ccnc2c1 [Compound 54, 1-N′-(4-Fluorophenyl)-1-N-[4-[7-(2-methylpyrazol-3-yl)quinolin-4-yl]oxyphenyl]cyclopropane-1,1-dicarboxamide] | 0.01 to 0.1 µM | 0.01 to 0.1 µM |
| O=C(Nc1ccc(F)cc1)C1(C(=O)Nc2ccc(Oc3ccnc4cc(-c5cnoc5)ccc34)cc2)CC1 [Compound 57, 1-N′-(4-Fluorophenyl)-1-N-[4-[7-(1,2-oxazol-4-yl)quinolin-4-yl]oxyphenyl]cyclopropane-1,1-dicarboxamide] | 0.01 to 0.1 µM | 0.01 to 0.1 µM |
| O=C(Nc1ccc(F)cc1)C1(C(=O)Nc2ccc(Oc3ccnc4cc(-c5cnn(C6CCNCC6)c5)ccc34)cc2)CC1 [Compound 60, 1-N′-(4-Fluorophenyl)-1-N-[4-[7-(1-piperidin-4-ylpyrazol-4-yl)quinolin-4-yl]oxyphenyl]cyclopropane-1,1-dicarboxamide] | 0.01 to 0.1 µM | 0.01 to 0.1 µM |
| CN1CCC(n2cc(-c3ccc4c(Oc5ccc(NC(=O)C6(C(=O)Nc7ccc(F)cc7)CC6)cc5)ccnc4c3)cn2)CC1 [Compound 61, 1-N′-(4-Fluorophenyl)-1-N-[4-[7-[1-(1-methylpiperidin-4-yl)pyrazol-4-yl]quinolin-4-yl]oxyphenyl]cyclopropane-1,1-dicarboxamide] | ≤ 0.01 µM | 0.01 to 0.1 µM |
| CC(=O)N1CCC(n2cc(-c3ccc4c(Oc5ccc(NC(=O)C6(C(=O)Nc7ccc(F)cc7)CC6)cc5)ccnc4c3)cn2)CC1 [Compound 62, 1-N-[4-[7-[1-(1-Acetylpiperidin-4-yl)pyrazol-4-yl]quinolin-4-yl]oxyphenyl]-1-N′-(4-fluorophenyl)cyclopropane-1,1-dicarboxamide] | ≤ 0.01 µM | 0.01 to 0.1 µM |
| O=C(Nc1ccc(F)cc1)C1(C(=O)Nc2ccc(Oc3ccnc4cc(-c5ncco5)ccc34)cc2)CC1 [Compound 66, 1-N′-(4-Fluorophenyl)-1-N-[4-[7-(1,3-oxazol-2-yl)quinolin-4-yl]oxyphenyl]cyclopropane-1,1-dicarboxamide] | 0.01 to 0.1 µM | 0.01 to 0.1 µM |
| O=C(Nc1ccc(F)cc1)C1(C(=O)Nc2ccc(Oc3ccnc4cc(-c5cn[nH]c5)ccc34)cc2)CC1 [Compound 67, 1-N′-(4-Fluorophenyl)-1-N-[4-[7-(1H-pyrazol-4-yl)quinolin-4-yl]oxyphenyl]cyclopropane-1,1-dicarboxamide] | ≤ 0.01 µM | ≤ 0.01 µM |
| O=C(Nc1ccc(F)cc1)C1(C(=O)Nc2ccc(Oc3ccnc4cc(-c5ccn[nH]5)ccc34)cc2)CC1 [Compound 68, 1-N′-(4-Fluorophenyl)-1-N-[4-[7-(1H-pyrazol-5-yl)quinolin-4-yl]oxyphenyl]cyclopropane-1,1-dicarboxamide] | 0.01 to 0.1 µM | 0.01 to 0.1 µM |
| Cn1cnc(-c2ccc3c(Oc4ccc(NC(=O)C5(C(=O)Nc6ccc(F)cc6)CC5)cc4)ccnc3c2)c1 [Compound 69, 1-N′-(4-Fluorophenyl)-1-N-[4-[7-(1-methylimidazol-4-yl)quinolin-4-yl]oxyphenyl]cyclopropane-1,1-dicarboxamide] | 0.01 to 0.1 µM | ≤ 0.01 µM |
| O=C(Nc1ccc(F)cc1)C1(C(=O)Nc2ccc(Oc3ccnc4cc(-c5cnc[nH]5)ccc34)cc2)CC1 [Compound 72, 1-N′-(4-Fluorophenyl)-1-N-[4-[7-(1H-imidazol-5-yl)quinolin-4-yl]oxyphenyl]cyclopropane-1,1-dicarboxamide] | ≤ 0.01 µM | ≤ 0.01 µM |
| O=C(Nc1ccc(F)cc1)C1(C(=O)Nc2ccc(Oc3ccnc4cc(-c5nnco5)ccc34)cc2)CC1 [Compound 73, 1-N′-(4-Fluorophenyl)-1-N-[4-[7-(1,3,4-oxadiazol-2-yl)quinolin-4-yl]oxyphenyl]cyclopropane-1,1-dicarboxamide] | 0.01 to 0.1 µM | 0.01 to 0.1 µM |
| O=C(Nc1ccc(F)cc1)C1(C(=O)Nc2ccc(Oc3ccnc4cc(-c5ncc[nH]5)ccc34)cc2)CC1 [Compound 74, 1-N′-(4-Fluorophenyl)-1-N-[4-[7-(1H-imidazol-2-yl)quinolin-4-yl]oxyphenyl]cyclopropane-1,1-dicarboxamide] | 0.01 to 0.1 µM | ≤ 0.01 µM |
| Cn1ccnc1-c1ccc2c(Oc3ccc(NC(=O)C4(C(=O)Nc5ccc(F)cc5)CC4)cc3)ccnc2c1 [Compound 75, 1-N′-(4-Fluorophenyl)-1-N-[4-[7-(1-methylimidazol-2-yl)quinolin-4-yl]oxyphenyl]cyclopropane-1,1-dicarboxamide] | 0.01 to 0.1 µM | 0.01 to 0.1 µM |
| COc1cc2c(Oc3ccc(NC(=O)C4(C(=O)Nc5ccc(F)cc5)CC4)cc3)ccnc2cc1-c1cnn(C)c1 [Compound 76, 1-N′-(4-Fluorophenyl)-1-N-[4-[6-methoxy-7-(1-methylpyrazol-4-yl)quinolin-4-yl]oxyphenyl]cyclopropane-1,1-dicarboxamide] | ≤ 0.01 µM | 0.01 to 0.1 µM |
